Data as given in US11047847B2, “Methods and apparatus for modeling cancer metastasis in vitro” (Wake Forest University Health Sciences, priority 2015, dated 2021).
Entries after “also recorded” stand apart in the source; their conditions may differ.

What was measured:
[1] = tested on: HCT116 organoids (KRASMT); assay: MTS assay of mitochondrial metabolism in CRC organoids in microfluidic devices; assay type: cell-based, human; conditions: 48-hour treatment
Text: (§1) Precision medicine—identifying treatments for patients based on their tumor genetic profiles—has gained significant traction. […] In a non-limiting example, colorectal cancer (CRC) organoids were created by encapsulating CRC cells (Caco2 and SW480—WT; HCT116—KRASMT; and HT29—BRAFMT) in hyaluronic acid and gelatin hydrogels in microfluidic devices. Each type of CRC organoid was then subjected to a panel of clinical CRC drugs: 5-FU or oxaliplatin (1st line drugs effective in WT tumors), Tramatinib (an EGFR pathway drug effective in KRASMT tumors), and sorafenib or regorafenib (EGFR pathway drugs effective in BRAFMT tumors). Following 48-hour treatments, organoids were assessed for mitochondrial metabolism by MTS assays. There appeared to be clear differences in drug responsiveness that correlated with EGFR genetic states.

SW480 organoids (WT) = assay: as above; assay type: cell-based; conditions: 48-hour treatment
Text: as §1

Caco2 organoids (WT) = assay: as above; assay type: cell-based; conditions: 48-hour treatment
Text: as §1

HCT-116 cells = assay: Drug treatment and assessment of migration, multi-zone tumor organoid migration model (soft tumor, stiff tissue); assay type: cell-based, human; conditions: 50 μM Marimastat in DMEM vs no drug control
Protocol: To assess the influence of the physical tumor microenvironment parameters on tumor cell migration, a variation of the organoids described above were […]. Instead of encapsulating homogenously mixed cells throughout the hydrogel, 3-D organoid volumes were formed first, after which a volume of 5 μL HCT-116 cells in hydrogel precursor solution was pipetted into the center of the organoid space and polymerized in place by a 1 second exposure to UV light. […] Organoid and tumor zone elastic moduli were modulated by swapping of the linear PEGDA crosslinker molecule (3.4 kDa MW) with a 4-arm PEG-acrylate molecule (10 kDa MW, Creative PEGWorks, Winston-Salem, N.C.) or 8-arm PEG-acrylate crosslinker molecule (10 kDa MW, Creative PEGWorks) to generate stiffer hydrogels. […] Fluorescent and brightfield overlay images were captured on day 3, day 7, and day 10, from which distances of migration of cells out of the tumor were determined over time using ImageJ software. […]

HT29 organoids (BRAFMT) = assay: MTS assay of mitochondrial metabolism in CRC organoids in microfluidic devices; assay type: cell-based; conditions: 48-hour treatment
Text: as §1

Question: `O=c1[nH]cc(F)c(=O)[nH]1` [5-FU] was tested. Which “drug sensitivity (mitochondrial metabolism by MTS)” value (“drug sensitivity” for short) [1] did it give?
Answer: The value was “particularly sensitive”.

Question: What about the “drug sensitivity” value (SW480 organoids (WT)) of the same molecule?
Answer: Its value is “particularly sensitive”.

Question: What about the “drug sensitivity” value (Caco2 organoids (WT)) of the same molecule?
Answer: The value was “particularly sensitive”.

Question: `CNC(=O)C(NC(=O)C(CC(C)C)C(O)C(=O)NO)C(C)(C)C` (stereo not shown) [Marimastat, N-[2,2-dimethyl-1-(methylcarbamoyl)propyl]-2-[hydroxy-(hydroxycarbamoyl)methyl]-4-methyl-pentanamide] was tested. Which “migration distance of HCT-116 cells out of the tumor” value (HCT-116 cells; day 3, day 7 and day 10, length in pixel counts, p<0.05) did it give?
Answer: The value was “significantly prevented migration”.

Question: And the “tumor cell invasion / outward growth of HCT-116 aggregates into the surrounding 3-D environment” value (HCT-116 cells; overlay images, day 10)?
Answer: Its value is “reduce tumor cell invasion; also recorded: prevents outward growth of aggregates”.

Question: `CNC(=O)c1cc(Oc2ccc(NC(=O)Nc3ccc(Cl)c(C(F)(F)F)c3)c(F)c2)ccn1` [regorafenib] was tested. Which “drug sensitivity” value (HT29 organoids (BRAFMT)) did it give?
Answer: Its value is “slight sensitivity”.

Question: `CNC(=O)c1cc(Oc2ccc(NC(=O)Nc3ccc(Cl)c(C(F)(F)F)c3)cc2)ccn1` [sorafenib] was tested. Which “drug sensitivity” value [1] did it give?
Answer: The value was “particularly sensitive”.
